PMC11403733, “Asymmetric Dirhodium-Catalyzed Modification of Immunomodulatory Imide Drugs and Their Biological Assessment” (ACS Medicinal Chemistry Letters, 2024)
Where “and” joins values, the source holds several entries; their conditions need not be identical. Equal values may be shown once.

Legend:
GSPT1 = target: T1, GSPT1 (Homo sapiens, UniProt P15170+Q96SW2); experiment: ePL degradation assay, DF15/GSPT1 ePL OE cells; format: cell-based; conditions: N ≥ 3; for EC50: degradation, 20 hr incubation, top conc 10 uM; for GSPT1 Ymin: depth of degradation (100% = no reduction, 0% = complete degradation), 20 hr
T1 construct: expressed in transfected cells; host or cells: DF15
T1 sequence (P15170 1-637 isoform P15170-3): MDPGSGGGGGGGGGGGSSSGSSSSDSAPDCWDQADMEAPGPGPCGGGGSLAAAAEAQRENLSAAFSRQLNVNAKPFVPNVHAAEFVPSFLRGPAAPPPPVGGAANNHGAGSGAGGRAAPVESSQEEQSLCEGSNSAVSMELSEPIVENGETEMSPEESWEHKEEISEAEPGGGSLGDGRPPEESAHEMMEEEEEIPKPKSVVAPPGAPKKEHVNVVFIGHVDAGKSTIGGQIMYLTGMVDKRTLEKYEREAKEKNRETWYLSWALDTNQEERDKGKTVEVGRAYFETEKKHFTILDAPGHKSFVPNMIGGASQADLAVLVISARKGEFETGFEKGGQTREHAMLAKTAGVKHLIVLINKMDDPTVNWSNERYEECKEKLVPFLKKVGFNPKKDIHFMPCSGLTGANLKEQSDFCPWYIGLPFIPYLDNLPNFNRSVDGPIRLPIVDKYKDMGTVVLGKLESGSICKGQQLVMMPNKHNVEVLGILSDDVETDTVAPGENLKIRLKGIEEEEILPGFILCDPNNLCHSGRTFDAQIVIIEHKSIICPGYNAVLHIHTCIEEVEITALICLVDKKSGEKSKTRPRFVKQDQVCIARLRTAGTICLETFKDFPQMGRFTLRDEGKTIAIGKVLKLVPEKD
T1 sequence (Q96SW2 whole entry): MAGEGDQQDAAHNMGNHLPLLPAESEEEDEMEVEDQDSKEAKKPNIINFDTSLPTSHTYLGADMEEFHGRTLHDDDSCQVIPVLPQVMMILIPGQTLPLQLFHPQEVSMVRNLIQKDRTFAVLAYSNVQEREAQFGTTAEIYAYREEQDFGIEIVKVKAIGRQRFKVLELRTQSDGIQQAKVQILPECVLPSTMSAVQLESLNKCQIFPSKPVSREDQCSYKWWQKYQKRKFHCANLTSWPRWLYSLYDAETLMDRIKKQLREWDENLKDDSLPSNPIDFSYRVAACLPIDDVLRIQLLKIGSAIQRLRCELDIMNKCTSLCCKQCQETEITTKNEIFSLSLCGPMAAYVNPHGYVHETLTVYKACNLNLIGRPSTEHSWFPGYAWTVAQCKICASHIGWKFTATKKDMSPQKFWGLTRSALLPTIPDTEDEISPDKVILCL
T1 sequence (Q16531 whole entry partner): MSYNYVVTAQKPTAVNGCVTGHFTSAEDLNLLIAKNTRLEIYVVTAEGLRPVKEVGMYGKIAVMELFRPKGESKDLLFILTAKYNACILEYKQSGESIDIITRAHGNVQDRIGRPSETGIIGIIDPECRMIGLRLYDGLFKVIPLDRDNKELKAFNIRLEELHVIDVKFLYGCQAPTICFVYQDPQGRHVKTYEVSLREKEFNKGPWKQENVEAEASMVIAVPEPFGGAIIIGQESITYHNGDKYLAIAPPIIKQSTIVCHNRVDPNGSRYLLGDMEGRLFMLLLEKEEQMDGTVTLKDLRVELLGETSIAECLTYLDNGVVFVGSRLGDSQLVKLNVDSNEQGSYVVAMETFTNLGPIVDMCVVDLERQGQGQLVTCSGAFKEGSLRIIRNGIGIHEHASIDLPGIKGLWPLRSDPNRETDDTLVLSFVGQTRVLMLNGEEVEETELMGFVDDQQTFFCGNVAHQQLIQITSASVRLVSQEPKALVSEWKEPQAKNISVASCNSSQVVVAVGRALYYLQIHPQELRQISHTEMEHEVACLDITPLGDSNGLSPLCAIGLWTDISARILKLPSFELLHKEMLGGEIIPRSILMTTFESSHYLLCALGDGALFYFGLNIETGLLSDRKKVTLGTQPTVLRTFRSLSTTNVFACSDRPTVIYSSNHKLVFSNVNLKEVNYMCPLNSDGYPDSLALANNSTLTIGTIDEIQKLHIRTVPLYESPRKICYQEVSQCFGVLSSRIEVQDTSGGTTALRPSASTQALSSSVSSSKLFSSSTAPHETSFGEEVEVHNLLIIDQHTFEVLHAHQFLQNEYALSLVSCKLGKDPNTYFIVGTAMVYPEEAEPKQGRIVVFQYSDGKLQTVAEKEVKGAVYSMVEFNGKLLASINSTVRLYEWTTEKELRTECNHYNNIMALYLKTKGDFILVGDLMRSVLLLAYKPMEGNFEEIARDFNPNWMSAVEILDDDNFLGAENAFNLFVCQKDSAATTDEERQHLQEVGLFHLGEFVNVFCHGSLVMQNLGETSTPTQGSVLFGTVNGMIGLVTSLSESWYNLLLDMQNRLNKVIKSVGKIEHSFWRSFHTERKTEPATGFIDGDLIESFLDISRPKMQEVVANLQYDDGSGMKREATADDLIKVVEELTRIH
Experimental: (§1) Section 6: Assay Protocols
(§2) Fluorescence Resonance Energy Transfer-Based NSD@ PWWP Cereblon Binding Assay. […]
(§3) Compounds for testing were spotted into a 1536 well plate (Greiner Cat#782075). CRBN and Tracer solution were incubated in compound wells for 20 minutes. Detection mix containing Anti6xHis Tb Crytate (CisBio Cat#61HI2TLF) was then added to assay wells for a final 0.5x assay concentration of detection antibody (stock is provided at 400x). Plates were incubated for 30 minutes before being read on Pherastar FSX plate reader using TR-FRET module (Excitation 340nm, Emssion 615/665nm). ePL and HiBiT degradation assays
(§4) DF15 cells overexpressing ePL tagged GSPT1 (DF15/GSPT1 ePL OE) was used to monitor the degradation of GSPT1 induced by experimental compounds. MDS-L cells overexpressing ePL tagged CK1α and GSPT1G575N (MDS-L/CK1α ePL OE_ GSPT1G575N OE) was used to monitor the degradation of CK1α induced by experimental compounds. NCCIT cells with HiBiT tag knocked in at the c-terminus of SALL4 (NCCIT/SALL4-HiBiT KI) was used to monitor the degradation of SALL4 induced by experimental compounds. DF15 cells with HiBiT tag knocked in at the n-terminus of IKZF3 (DF15/HiBiT-IKZF3 KI) was used to monitor the degradation of AIOLOS (IKZF3) induced by experimental compounds. […]
(§5) The cell culture medium recipes, seeding densities and compound incubation time with cells are […]
(§6) Ta r g e t Cell line Cell culture medium Seeding Compound
(§7) (HI) FBS, 1mM sodium pyruvate, 25mM Hepes, 0.1% pluronic acid,
(§8) GSPT1G575N OE ng/mL of human recombinant IL3 […]
(§9) sodium pyruvate, 25mM Hepes, 0.1% pluronic acid, 1X NEAA
(§10) For all degradation assays, compounds were pre-spotted in a 153 6 well plate (Corning 3727) starting at 10uM with 3-fold serial dilution down 11 points in replicates using an Echo 650 series acoustic liquid handler. 5uL/well cells were seeded in the assay ready plate at the density and in […]
(§11) The final DMSO concentration in the cell culture was 0.25%. The plates were equilibrated at room temperature for 30 minutes before putting into a 37 °C CO2 incubator. After appropriate incubation period, plates were retrieved from the incubator and set at room temperature to equilibrate for 30 minutes, before adding ePL or HiBiT detection reagent. For ePL detection, the pre-prepared mixture of EA reagent, lysis buffer, and substrate reagent at ratio 1:1:4 from the DiscoverX InCELL Detection Kit (Eurofins 96-0079L) according to the manufacturer ’s recommendation was added 3ul/well into the plate. Plates were incubated in the dark for 1hr at room temperature before reading using a BMG PheraStar luminescence reader. For HiBiT detection, Nano-Glo HiBiT Lytic Reagent (Promega, N3050) prepared according to the manufacturer ’s recommendation was added 3 uL/well into the plate. Plates were incubated 30 minutes at room temperature in the dark before reading using a BMG PheraStar […]
(§12) To determine EC50 values for degradation, a four parameter logistic model (Sigmoidal Dose-Response Model) (FIT= (A+((B-A)/1+((C/x)^D)))) C is the inflection point (EC50), D is […] , A and B are the low and high limits of the fit respectively) was used to determine the compound’s EC50 value, which is the half maximum effective concentration. In the degradation assays, the Yconst of each compound was calculated by normalizing the lowest point of the fitted curve to the media only control, which is 0%, and the cells treated with DMSO control, which is 100%. All degradation curves were processed and evaluated using Dotmatics.
(§13) Section 7: Biological Data Tables

CK1α = target: T2, CK1α (Homo sapiens, UniProt P48729+Q96SW2); experiment: ePL degradation assay, MDS-L/CK1α ePL OE_GSPT1G575N OE cells; format: cell-based; conditions: for EC50: degradation, 4 hr incubation, top conc 10 uM, N ≥ 3, read-out: CK1a EC50; for CK1a Ymin: depth of degradation (100% = no reduction, 0% = complete degradation), 4 hr, N ≥ 3
T2 construct: expressed in transfected cells; host or cells: MDS-L
T2 sequence (P48729 whole entry): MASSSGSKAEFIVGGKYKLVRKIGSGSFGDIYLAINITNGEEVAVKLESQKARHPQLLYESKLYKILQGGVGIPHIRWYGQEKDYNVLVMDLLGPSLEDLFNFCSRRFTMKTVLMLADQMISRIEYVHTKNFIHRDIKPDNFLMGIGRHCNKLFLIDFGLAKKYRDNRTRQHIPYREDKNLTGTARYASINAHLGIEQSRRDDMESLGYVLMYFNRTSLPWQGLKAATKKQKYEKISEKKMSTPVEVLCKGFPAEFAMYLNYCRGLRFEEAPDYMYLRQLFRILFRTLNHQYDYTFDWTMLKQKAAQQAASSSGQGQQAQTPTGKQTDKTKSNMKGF
T2 sequence (Q96SW2 whole entry): as the sequence (Q96SW2 whole entry) above
T2 sequence (Q16531 whole entry partner): as the sequence (Q16531 whole entry partner) above
Experimental: as §1, §2, §3, §4, §5, §6, §7, §8, §9, §10, §11, §12, §13

SALL4 = target: T3, SALL4 (Homo sapiens, UniProt Q96SW2+Q9UJQ4); experiment: HiBiT degradation assay, NCCIT/SALL4-HiBiT KI cells; format: cell-based; conditions: N ≥ 3; for EC50: degradation, 2 hr incubation, top conc 10 uM; for SALL4 Ymin: depth of degradation (100% = no reduction, 0% = complete degradation), 2 hr
T3 construct: endogenous in cells; host or cells: NCCIT (HiBiT knock-in)
T3 sequence (Q9UJQ4 whole entry): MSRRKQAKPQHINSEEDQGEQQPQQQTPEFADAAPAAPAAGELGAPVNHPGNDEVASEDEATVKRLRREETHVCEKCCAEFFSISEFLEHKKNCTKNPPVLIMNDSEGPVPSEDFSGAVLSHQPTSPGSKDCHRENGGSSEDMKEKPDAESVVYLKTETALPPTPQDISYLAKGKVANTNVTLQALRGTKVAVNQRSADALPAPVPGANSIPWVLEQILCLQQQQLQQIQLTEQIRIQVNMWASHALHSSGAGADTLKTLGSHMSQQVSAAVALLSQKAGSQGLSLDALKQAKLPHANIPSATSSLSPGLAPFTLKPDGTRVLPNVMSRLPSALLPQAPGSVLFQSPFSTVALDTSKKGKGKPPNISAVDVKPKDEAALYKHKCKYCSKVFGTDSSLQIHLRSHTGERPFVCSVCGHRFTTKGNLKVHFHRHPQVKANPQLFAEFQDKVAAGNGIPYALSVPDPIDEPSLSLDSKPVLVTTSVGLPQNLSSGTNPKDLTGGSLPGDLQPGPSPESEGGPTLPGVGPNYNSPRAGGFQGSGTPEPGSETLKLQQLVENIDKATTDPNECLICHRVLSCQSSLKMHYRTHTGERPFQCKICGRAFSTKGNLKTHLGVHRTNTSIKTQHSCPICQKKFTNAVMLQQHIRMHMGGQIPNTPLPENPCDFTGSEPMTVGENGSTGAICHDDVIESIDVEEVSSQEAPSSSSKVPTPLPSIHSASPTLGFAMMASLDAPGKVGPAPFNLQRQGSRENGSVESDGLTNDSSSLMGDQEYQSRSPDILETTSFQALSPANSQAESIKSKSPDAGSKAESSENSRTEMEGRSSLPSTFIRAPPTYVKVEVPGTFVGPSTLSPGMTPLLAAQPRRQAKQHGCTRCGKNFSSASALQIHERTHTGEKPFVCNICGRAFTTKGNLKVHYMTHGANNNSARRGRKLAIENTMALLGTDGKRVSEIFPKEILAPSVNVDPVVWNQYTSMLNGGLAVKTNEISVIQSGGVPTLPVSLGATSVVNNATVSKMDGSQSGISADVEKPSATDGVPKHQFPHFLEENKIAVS
T3 sequence (Q96SW2 whole entry): as the sequence (Q96SW2 whole entry) above
T3 sequence (Q16531 whole entry partner): as the sequence (Q16531 whole entry partner) above
Experimental: as §1, §2, §3, §4, §5, §6, §7, §8, §9, §10, §11, §12, §13

CRBN = target: T4, CRBN (Homo sapiens, UniProt Q96SW2); experiment: Fluorescence Resonance Energy Transfer-Based Cereblon Binding Assay (CRBN HTRF); conditions: 0.5 nM 6×His-CRBN-DDB1, 20 nM tracer CC0782985, TR-FRET
T4 construct: (CRBN a.a. 1−442, DDB1 a.a); made in house
T4 sequence (Q96SW2 whole entry): as the sequence (Q96SW2 whole entry) above
T4 sequence (Q16531 whole entry partner): as the sequence (Q16531 whole entry partner) above
Experimental: as §1, §2, §3, §4

IKZF3 (Aiolos) = target: T5, IKZF3 (Aiolos) (Homo sapiens, UniProt Q96SW2+Q9UKT9); experiment: HiBiT degradation assay, DF15/HiBiT-IKZF3 KI cells; format: cell-based; conditions: N ≥ 3; for EC50: degradation, 4 hr incubation, top conc 10 uM; for IKZF3 Ymin: depth of degradation (100% = no reduction of protein level, 0% = complete degradation), 4 hr
T5 construct: endogenous in cells; host or cells: DF15 (HiBiT knock-in)
T5 sequence (Q9UKT9 whole entry): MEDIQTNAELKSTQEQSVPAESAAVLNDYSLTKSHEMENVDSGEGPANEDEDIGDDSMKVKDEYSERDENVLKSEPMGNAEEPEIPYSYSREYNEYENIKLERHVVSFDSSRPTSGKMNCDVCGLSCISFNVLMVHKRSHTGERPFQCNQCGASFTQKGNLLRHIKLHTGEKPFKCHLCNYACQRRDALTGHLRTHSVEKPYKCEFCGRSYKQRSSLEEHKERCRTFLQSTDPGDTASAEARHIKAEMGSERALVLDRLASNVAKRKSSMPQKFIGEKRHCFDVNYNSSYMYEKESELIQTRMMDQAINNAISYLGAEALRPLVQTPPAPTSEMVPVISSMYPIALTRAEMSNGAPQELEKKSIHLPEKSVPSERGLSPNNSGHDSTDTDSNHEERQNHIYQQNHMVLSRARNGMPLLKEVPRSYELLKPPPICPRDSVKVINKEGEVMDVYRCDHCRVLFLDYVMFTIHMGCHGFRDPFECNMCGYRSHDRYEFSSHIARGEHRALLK
T5 sequence (Q96SW2 whole entry): as the sequence (Q96SW2 whole entry) above
T5 sequence (Q16531 whole entry partner): as the sequence (Q16531 whole entry partner) above
Experimental: as §1, §2, §3, §4, §5, §6, §7, §8, §9, §10, §11, §12, §13

Row | Structure (SMILES) | EC50 (GSPT1) | GSPT1 Ymin (GSPT1) [%] | EC50 (CK1α) [µM] | CK1a Ymin (CK1α) [%] | EC50 (SALL4) [µM] | SALL4 Ymin (SALL4) [%] | IC50 (CRBN) [µM] | EC50 (IKZF3 (Aiolos)) | IKZF3 Ymin (IKZF3 (Aiolos))
1 | O=C1CCC(N2Cc3c(cccc3[C@@H]3C[C@]3(C(=O)OCC(Cl)(Cl)Cl)c3ccc(Br)cc3)C2=O)C(=O)N1 (stereo partly drawn) [Compound 13a] | > 10 µM | 92 ± 7.8 | > 10 | 87 ± 0.55 | > 10 | 85 ± 7.3 | 0.66 | > 10 µM and 1.86 µM | –
2 | O=C1CCC(N2Cc3c(cccc3[C@H]3C[C@@]3(C(=O)OCC(Cl)(Cl)Cl)c3ccc(Br)cc3)C2=O)C(=O)N1 (stereo partly drawn) [Compound 13b] | > 10 µM | 99 ± 2.2 | > 10 | 90 ± 7.1 | > 10 | 97 ± 3.1 | 2.4 | > 10 µM | 97 ± 4.9%
3 | O=C1CCC(N2C(=O)c3cccc([C@@H]4C[C@]4(C(=O)OCC(Cl)(Cl)Cl)c4ccc(Br)cc4)c3C2=O)C(=O)N1 (stereo partly drawn) [Compound 14a] | > 10 µM | 91 ± 16 | > 10 | 92 ± 3.8 | > 10 | 91 ± 8.0 | > 10 | > 10 µM | 89 ± 3.2%
4 | O=C1CCC(N2C(=O)c3cccc([C@H]4C[C@@]4(C(=O)OCC(Cl)(Cl)Cl)c4ccc(Br)cc4)c3C2=O)C(=O)N1 (stereo partly drawn) [Compound 14b] | > 10 µM | 87 ± 11 | > 10 | 94 ± 5.1 | > 10 | 87 ± 13 | 7.9 | > 10 µM | –
5 | O=C1CCC(N2Cc3cc([C@@H]4C[C@]4(C(=O)OCC(Cl)(Cl)Cl)c4ccc(Br)cc4)ccc3C2=O)C(=O)N1 (stereo partly drawn) [Compound 15a] | > 10 µM | 96 ± 7.8 | > 10 | – | > 10 | 99 ± 1.2 | 0.39 | > 10 µM | 100 ± 4.6%
6 | O=C1CCC(N2Cc3cc([C@H]4C[C@@]4(C(=O)OCC(Cl)(Cl)Cl)c4ccc(Br)cc4)ccc3C2=O)C(=O)N1 (stereo partly drawn) [Compound 15b] | > 10 µM | 83 ± 7.0 | 0.22 ± 0.089 | – | 0.16 ± 0.05 | 67 ± 5.4 | 1.3 | > 10 µM | 89 ± 5.0%
7 | O=C1CCC(N2C(=O)c3ccc([C@@H]4C[C@]4(C(=O)OCC(Cl)(Cl)Cl)c4ccc(Br)cc4)cc3C2=O)C(=O)N1 (stereo partly drawn) [Compound 16a] | > 10 µM | – | > 10 | 94 ± 9.9 | > 10 | 92 ± 8.2 | 5.3 | > 10 µM | 94 ± 8.3%
8 | O=C1CCC(N2C(=O)c3ccc([C@H]4C[C@@]4(C(=O)OCC(Cl)(Cl)Cl)c4ccc(Br)cc4)cc3C2=O)C(=O)N1 (stereo partly drawn) [Compound 16b] | > 10 µM and 3.1 µM | – | > 10 | 85 ± 4.1 | 0.41 ± 0.16 | 60 ± 6.1 | > 10 | > 10 µM | 97 ± 3.6%
9 | O=C1CCC(N2Cc3ccc([C@@H]4C[C@]4(C(=O)OCC(Cl)(Cl)Cl)c4ccc(Br)cc4)cc3C2=O)C(=O)N1 (stereo partly drawn) [Compound 17a] | > 10 µM | 95 ± 5.4 | > 10 | 98 ± 12 | > 10 | 97 ± 2.2 | 2.1 | > 10 µM | 95 ± 7.6%
10 | O=C1CCC(N2Cc3ccc([C@H]4C[C@@]4(C(=O)OCC(Cl)(Cl)Cl)c4ccc(Br)cc4)cc3C2=O)C(=O)N1 (stereo partly drawn) [Compound 17b] | > 10 µM | 93 ± 5.8 | > 10 | 96 ± 12 | > 10 | 96 ± 3.1 | 2.5 | > 10 µM | 89 ± 6.5%
11 | O=C1CCC(N2Cc3cccc([C@@H]4C[C@]4(C(=O)OCC(Cl)(Cl)Cl)c4ccc(Br)cc4)c3C2=O)C(=O)N1 (stereo partly drawn) [Compound 18a] | > 10 µM | 87 ± 6.5 | > 10 | 89 ± 1.7 | > 10 | 93 ± 3.8 | > 10 | > 10 µM | 91 ± 0.6%
12 | O=C1CCC(N2C(=O)c3cccc(C4=C[C@@]4(C(=O)OCC(Cl)(Cl)Cl)c4ccc(Br)cc4)c3C2=O)C(=O)N1 (stereo partly drawn) [Compound 20b] | 5.1 ± 1.4 µM | 17 ± 13 | 2.1 ± 1.3 | 54 ± 8.9 | 2.8 ± 1.6 | 57 ±7.7 | – | 3.7 µM and 3.67 µM | 10 ± 8.2% and 10%
13 | O=C1CCC(N2C(=O)c3ccc(C4=C[C@@]4(C(=O)OCC(Cl)(Cl)Cl)c4ccc(Br)cc4)cc3C2=O)C(=O)N1 (stereo partly drawn) [Compound 22b] | – | – | 1.6 ± 0.71 | 55 ± 39 | 2.4 ± 1.7 | 58 ± 3.2 | 7.8 | 0.31 ± 0.11 µM | 71 ± 9.7%
